Values joined by “and” are separate entries in the source; they are usually repeats but may differ in a detail not shown here. Equal values may be shown once.
experiment: BET specific surface area analysis; format: physicochemical; settings: further BET measurement accompanying the particle size analysis (Table 23)
Protocol: BET specific surface area analysis was conducted on various batches of precipitated amorphous Letermovir. The same was done on a batch of Letermovir (named BXR3GBL) produced according to Example 11 of WO 2006/133822. The results of the analysis are shown below in Table 22: The particular BET method is characterized by the following parameter: Principle: Nitrogen adsorption at 77 K; method according to Brunauer, Emmett and Teller Method: volumetric method (method II) according to USP <846> Instrument: Tristar 3000/VacPrep 061 (Micromeritics) Sample mass: approximately 1.5-2.5 g Sample preparation: degassing for 2 h at 40° C. under vacuum (final vacuum <2.7 Pa) Pressure range p/p0: 0.05-0.15 (3 data points).

| SMILES | Specific Surface Area (SSA), m^2/g [m^2/g] |
| --- | --- |
| COc1cccc(N2CCN(C3=Nc4c(F)cccc4[C@H](CC(=O)O)N3c3cc(C(F)(F)F)ccc3OC)CC2)c1 [Batch 1300735] | 2.18 |
| COc1cccc(N2CCN(C3=Nc4c(F)cccc4[C@H](CC(=O)O)N3c3cc(C(F)(F)F)ccc3OC)CC2)c1 [Batch BXR3GBL, reference compound] | 1.55 |
| COc1cccc(N2CCN(C3=Nc4c(F)cccc4[C@H](CC(=O)O)N3c3cc(C(F)(F)F)ccc3OC)CC2)c1 [Batch 1300750] | 2.1 |

same assay, conditions: isolated API

| SMILES | specific surface area |
| --- | --- |
| COc1cccc(N2CCN(C3=Nc4c(F)cccc4[C@H](CC(=O)O)N3c3cc(C(F)(F)F)ccc3OC)CC2)c1 [precipitated Letermovir, (S)-{8-fluoro-2-[4-(3-methoxyphenyl)piperazin-1-yl]-3-(2-methoxy-5-trifluormethylphenyl)-3,4-dihydroquinazolin-4-yl}acetic acid] | 1.2-2 m^2/g |
| COc1cccc(N2CCN(C3=Nc4c(F)cccc4[C@H](CC(=O)O)N3c3cc(C(F)(F)F)ccc3OC)CC2)c1 [roller dried Letermovir] | < 1 m^2/g |

same assay, conditions: nitrogen adsorption at 77 K

| SMILES | Specific Surface Area (SSA), m^2/g; BET value on average |
| --- | --- |
| COc1cccc(N2CCN(C3=Nc4c(F)cccc4[C@H](CC(=O)O)N3c3cc(C(F)(F)F)ccc3OC)CC2)c1 [Batch 40479200] | 1.30 m^2/g |
| COc1cccc(N2CCN(C3=Nc4c(F)cccc4[C@H](CC(=O)O)N3c3cc(C(F)(F)F)ccc3OC)CC2)c1 [Batch 40475297] | 1.25 m^2/g |
| COc1cccc(N2CCN(C3=Nc4c(F)cccc4[C@H](CC(=O)O)N3c3cc(C(F)(F)F)ccc3OC)CC2)c1 [Batch 40474463] | 1.23 m^2/g |
| COc1cccc(N2CCN(C3=Nc4c(F)cccc4[C@H](CC(=O)O)N3c3cc(C(F)(F)F)ccc3OC)CC2)c1 [Batch 40479434] | 1.48 m^2/g |
| COc1cccc(N2CCN(C3=Nc4c(F)cccc4[C@H](CC(=O)O)N3c3cc(C(F)(F)F)ccc3OC)CC2)c1 [Batch 40479202] | 1.69 m^2/g |
| COc1cccc(N2CCN(C3=Nc4c(F)cccc4[C@H](CC(=O)O)N3c3cc(C(F)(F)F)ccc3OC)CC2)c1 [Batch 40479198] | 2.09 m^2/g |
| COc1cccc(N2CCN(C3=Nc4c(F)cccc4[C@H](CC(=O)O)N3c3cc(C(F)(F)F)ccc3OC)CC2)c1 [Batch 40479201] | 1.97 m^2/g |
| COc1cccc(N2CCN(C3=Nc4c(F)cccc4[C@H](CC(=O)O)N3c3cc(C(F)(F)F)ccc3OC)CC2)c1 [Batch 40479463] | 1.45 m^2/g |
| COc1cccc(N2CCN(C3=Nc4c(F)cccc4[C@H](CC(=O)O)N3c3cc(C(F)(F)F)ccc3OC)CC2)c1 [Batch 40479326] | 1.76 m^2/g |
| COc1cccc(N2CCN(C3=Nc4c(F)cccc4[C@H](CC(=O)O)N3c3cc(C(F)(F)F)ccc3OC)CC2)c1 [Batch 40479189] | 1.26 m^2/g |
| COc1cccc(N2CCN(C3=Nc4c(F)cccc4[C@H](CC(=O)O)N3c3cc(C(F)(F)F)ccc3OC)CC2)c1 [Batch 40474375] | 1.46 m^2/g |
| COc1cccc(N2CCN(C3=Nc4c(F)cccc4[C@H](CC(=O)O)N3c3cc(C(F)(F)F)ccc3OC)CC2)c1 [Batch BXR3GBL, reference compound] | 0.64 m^2/g |
| COc1cccc(N2CCN(C3=Nc4c(F)cccc4[C@H](CC(=O)O)N3c3cc(C(F)(F)F)ccc3OC)CC2)c1 [Batch 40483515] | 1.03 m^2/g |
| COc1cccc(N2CCN(C3=Nc4c(F)cccc4[C@H](CC(=O)O)N3c3cc(C(F)(F)F)ccc3OC)CC2)c1 [Batch 40483517] | 1.87 m^2/g and 1.83 m^2/g |
| COc1cccc(N2CCN(C3=Nc4c(F)cccc4[C@H](CC(=O)O)N3c3cc(C(F)(F)F)ccc3OC)CC2)c1 [Batch 40483516] | 1.28 m^2/g |
| COc1cccc(N2CCN(C3=Nc4c(F)cccc4[C@H](CC(=O)O)N3c3cc(C(F)(F)F)ccc3OC)CC2)c1 [Batch 40479248] | 1.45 m^2/g |

experiment: Laser diffraction particle size distribution analysis (Mastersizer 2000); format: physicochemical; settings: Mastersizer 2000, dry dispersion, average of four analyses
Protocol: Laser diffraction particle size distribution analysis was conducted on two batches of precipitated amorphous Letermovir of the invention and on a batch of amorphous Letermovir (referred to as BXR3GBL) produced according to Example 11 of WO 2006/133822 while using laser diffraction technique of the Mastersizer 2000 (Malvern Instruments). The results of the analysis are presented in FIG. 9(a-c) in the form of three particle size distribution charts and the numeric part of the results is shown below in Table 23: The particular PSD analysis method is characterized by the following parameter: Device: Mastersizer 2000 with dry dispersion Modus: Fraunhofer; weight-in quantity: 0.3-0.4 g Measurement time: 20 seconds Background time: 6 seconds Obscuration limits: 0.5 to 6% Sample tray: micro volume; small sieve with balls Feed rate: 45-55% Dispersive pressure: 2.5 bar Four independent analyses were performed and the results were averaged.

| SMILES | Particle Size Median Value d(0.5), μm [μm] |
| --- | --- |
| COc1cccc(N2CCN(C3=Nc4c(F)cccc4[C@H](CC(=O)O)N3c3cc(C(F)(F)F)ccc3OC)CC2)c1 [Batch 1300735] | 8.880 |
| COc1cccc(N2CCN(C3=Nc4c(F)cccc4[C@H](CC(=O)O)N3c3cc(C(F)(F)F)ccc3OC)CC2)c1 [Batch BXR3GBL, reference compound] | 21.607 |
| COc1cccc(N2CCN(C3=Nc4c(F)cccc4[C@H](CC(=O)O)N3c3cc(C(F)(F)F)ccc3OC)CC2)c1 [Batch 1300750] | 9.383 |
